Columns and labels:
Format in all cases: cell-based, Jatropha Curcas
anthers of Jatropha = assay: Callus induction (callus formation) from anthers on callus induction composition
Protocol: The flower bud of about 2.5 mm were selected for excision of anthers. The flower buds were blot dried with several layers of sterile filter papers to remove excess moisture.
The anthers were excised from unopened flower buds in the laminar air flow (sterile hood) under aseptic conditions.
About 10 to 12 anthers were inoculated into culture tubes comprising the composition of the present disclosure for callus induction. The inoculated culture tubes were incubated in dark at a temperature of about 25±1° C. for a period ranging from about 25 days to 30 days. The culture tubes were replenished with the composition every three weeks for high frequency induction of callus. […]

[1] = tested on: embryogenic calli of Jatropha anthers; assay: Plant regeneration from embryogenic calli of Jatropha anthers
Protocol: The calli of size ranging from about 0.5 cm to 1.0 cm (breadth) were divided into small pieces and inoculated in the culture tubes comprising the composition of the present disclosure for induction of somatic embryogenesis.
The culture tubes showing the developed somatic embryoids were transferred to composition of the present disclosure for somatic embryo maturation and incubated in light culture room for about 16 hours under photoperiod (provided by cool while fluorescent lamp) and under dark for about 8 hours at a temperature of about 25±1° C. This process is continued until somatic embryos get matured and small shoots are visible.
Regeneration of embryogenic calli or embryoids was stimulated and maintained on various combinations of MSB media. Regenerated shoots were transferred to rooting medium for root development.
Table 3 illustrates the effect of different concentration of IBA individually and in combination with BAP and Kinetin of different concentrations on plant regeneration from embryogenic calli of Jatropha anthers.

[2] = tested on: matured embryoids or small plantlets of Jatropha; assay: Embryo germination and rooting of seedling
Protocol: The matured embryoids with the photoperiod of 16 hrs light and 8 hrs dark or small plantlets were transferred to the composition of the present disclosure and incubated at temperature ranging from about 25° C. to 28° C. for period of about 25 days to 30 days, for germination, for proliferation of roots and further elongation of shoots.
Table 4 illustrates the effect of different concentrations of IBA individually and in combination of with various concentrations of phloroglucinol and GA3 on embryo germination and rooting of seedling. Among the tested concentrations, IBA-0.1 mg/l, phloroglucinol—0.5 mg/l; Gibberellic acid-0.5 mg/l observed to be effective in producing more number of roots (6 roots/shoot) in 80% of the cultures; employing the composition comprising 100 ml of MS macro elements (10× concentration), about 25 ml of MS micro elements (100× concentration) about 10 ml of MS vitamins (200× concentration); citric aicd—40 mg/l; PVP—250 mg/l; Ascorbic acid—55 mg/l; myo inositol—100 mg/L; sucrose 20 g/L. Phytagel 1.5 g/l.

For `O=C(O)COc1ccc(Cl)cc1Cl` [2,4-D, 2,4-dichloro phenoxy acetic acid], the “Callus formation (%)” value (anthers of Jatropha; 2,4-D 0.5 mg/L) was 2%, the “Callus formation (%)” value (anthers of Jatropha; 2,4-D 1 mg/L) was 2% and the “Callus formation (%)” value (anthers of Jatropha; 2,4-D 2 mg/L) was 10%. For the same compound, the “Callus formation (%)” value (anthers of Jatropha; 2,4-D 3 mg/L) was 20%, the “Callus formation (%)” value (anthers of Jatropha; 2,4-D 4 mg/L) was 35% and the “Callus formation (%)” value (anthers of Jatropha; 2,4-D 5 mg/L) was 45%.
indole butyric acid [IBA] was tested, and the “% of cultures showed regeneration” value ([1]; IBA 0.1 mg/L) was 0.0%, the “No of Plants/explant” value ([1]; IBA 0.1 mg/L) was 0 Plants/explant and the “% of cultures showed regeneration” value ([1]; IBA 0.2 mg/L) was 0.0%. The “No of Plants/explant” value ([1]; IBA 0.2 mg/L) was 0 Plants/explant, the “% of cultures showed regeneration” value ([1]; IBA 1.0 mg/L) was 0.0% and the “No of Plants/explant” value ([1]; IBA 1.0 mg/L) was 0 Plants/explant. For the same compound, the “% of cultures showed regeneration” value ([1]; IBA 2.0 mg/L) was 0.0%, the “No of Plants/explant” value ([1]; IBA 2.0 mg/L) was 0 Plants/explant and the “% of cultures showed regeneration” value ([1]; IBA 5.0 mg/L) was 0.0%. The “No of Plants/explant” value ([1]; IBA 5.0 mg/L) was 0 Plants/explant, the “% of Embryos Germinated” value ([2]; IBA 0.1 mg/L) was 0.0% and the No. of roots/shoot ([2]; IBA 0.1 mg/L) was 0 roots/shoot. For the same compound, the “% of Embryos Germinated” value ([2]; IBA 0.2 mg/L) was 0.0%, the No. of roots/shoot ([2]; IBA 0.2 mg/L) was 0 roots/shoot and the “% of Embryos Germinated” value ([2]; IBA 1.0 mg/L) was 0.0%. The No. of roots/shoot ([2]; IBA 1.0 mg/L) was 0 roots/shoot, the “% of Embryos Germinated” value ([2]; IBA 2.0 mg/L) was 0.0% and the No. of roots/shoot ([2]; IBA 2.0 mg/L) was 0 roots/shoot. The “% of Embryos Germinated” value ([2]; IBA 5.0 mg/L) was 0.0% and the No. of roots/shoot ([2]; IBA 5.0 mg/L) was 0 roots/shoot.
